In patent US8247447B2, “Use of derivatives of 4-hydroxyphenoxy acetic acid” (Cognis IP Management GmbH, priority 2007, dated 2012):

System: Melanocytes (B16 cell line)
Assay: Melanogenesis inhibition assay (melanin level by optical density at 475 nm; viable cells by cellular proteins, Bradford's method)
Format: cell-based
Details: for Protein level (rate of cellular proteins) / Melanin level (rate of melanin): B16 melanocytes, 3 days incubation; for Protein level (rate of cellular proteins): Bradford's method; for Melanin level (rate of melanin): OD 475 nm
Protocol: Melanocytes (B16 cell line) were inoculated in standard medium of cell culture with foetal calf serum (FCS). After an incubation of 3 day at 37° C. and CO2=5%, growth medium was exchanged for standard medium with a range of concentrations for each compound to be tested and a control without ingredient. After an incubation of 3 days, the level of melanin was measured by recording the optical density at 475 nm. After washing the cells by a balanced salt, and homogenisation in a solution of 0.1 M NaOH, the number of viable cells was determined by evaluation of the level of cellular proteins (Bradford's method). The results are expressed in % against control (cell culture medium without compound) as a mean on 1 to 3 assays, each in triplicate.

## CC(Oc1ccc(O)cc1)C(=O)O (racemic) [2-(4-hydroxyphenoxy)-propionic acid]
Dose 0.00003 % (w/v)
  Protein level (rate of cellular proteins): 103 %/control
  Melanin level (rate of melanin): 84 %/control
Dose 0.0001 % (w/v)
  Protein level (rate of cellular proteins): 97 %/control
  Melanin level (rate of melanin): 57 %/control
Dose 0.0003 % (w/v)
  Protein level (rate of cellular proteins): 107 %/control
  Melanin level (rate of melanin): 52 %/control
Dose 0.001 % (w/v)
  Protein level (rate of cellular proteins): 104 %/control
  Melanin level (rate of melanin): 39 %/control
Dose 0.01 % (w/v)
  Protein level (rate of cellular proteins): 98 %/control
  Melanin level (rate of melanin): 37 %/control
melanocytes, doses up to 0.01%
  cell toxicity: without any cell toxicity
Result in words, over the tested dose range
  rate of melanin synthesis in melanocytes: decreased in a dose dependant manner
